Reference: the NIST ThermoML archive (doi:10.1016/j.jct.2015.06.019)
Numbers after ± are expanded uncertainties.

What was measured:
[1] = DSC
[2] = Molar enthalpy of transition or fusion; settings: DSC

- Triple point temperature ([1]; Crystal 1): 458.4 ± 1 K
- Triple point temperature ([1]; Crystal 2): 454.7 ± 1 K
- Molar enthalpy of transition or fusion ([2]; Crystal 1): 7.98 ± 0.335 kcal/mol
- Molar enthalpy of transition or fusion ([2]; Crystal 2): 9.09 ± 0.382 kcal/mol
SMILES: COC(=O)[C@H](c1ccccc1Cl)N1CCc2sccc2C1.O=S(=O)(O)O [(S)-(+)-Clopidogrel hydrogen sulfate]
